Assay results taken from patent publication US5707559A, “Chemiluminescent 1,2-dioxetane compounds” (priority 1987, dated 1998).

How the values were obtained:
[1] = tested on: Aryl esterase (carboxylic ester hydrolase) from porcine liver; test: Enzymatic triggering of chemiluminescence with aryl esterase; type: biochemical; settings: for effect of added competing esterase substrate on light intensity: […] solution added at maximum emission of 2e, pH 7.6 phosphate buffer, 37° C.
Method: (§1) A secondary stock solution of the acetate-protected dioxetane 2e was made by evaporating an aliquot of the methylene chloride stock equivalent to 10 micromoles of dioxetane and dissolving in 5.0 mL of 2-methoxyethanol to give a final concentration of 0.002M. […] Buffer solutions prepared in distilled water were 0.05M phosphate pH 7.6 and 8.0, 0.02M Tris (tris-hydroxymethylaminomethane maleate) pH 7.6, and pH 9.0 phosphate/borate buffer. Aryl esterase (also called carboxylic ester hydrolase (P-5221)) from porcine liver was purchased from Sigma Chemical Co. as a suspension of 11 mg of protein per mL in 3.2M (NH4)2 SO4 solution pH 8.0. Each mg of protein is equivalent to 260 Units, where 1 Unit is defined as the amount which will hydrolyze 1 micromole of ethyl butyrate in 1 minute at pH 8.0, 25° C. […] Injection of 1 μL of (0.26 units) of aryl esterase to the stirred solution caused a chemiluminescent signal to appear. The intensity reached a maximum at about 3 minutes and decayed over a 30 minute period.
3.) When distilled water was substituted for the Tris buffer, no chemiluminescence signal was observed, but on adding Tris buffer to this solution light emission similar to that above was produced. […] Addition of untreated enzyme preparation to this solution again produced light. […] The emission could be totally extinguished by addition of sufficient SDS. The decrease in light emission is not due to photophysical quenching of the excited state since thermal decomposition in the same solvent system at elevated temperatures results in readily detectable chemiluminescence.
This type of behavior explains the effect of the addition of the known esterase substrates α-naphthyl acetate and β-naphthyl acetate. […] A solution of 25 μL of the dioxetane stock (0.002M) in 3 mL of pH 7.6 phosphate buffer maintained at 37° C. was treated with 5 μL of the enzyme to initiate the chemiluminescence. At the point of maximum emission […] of 0.011M solution of either α- or β-naphthyl acetate were added.

[2] = Triggering the chemiluminescence of hydroxy-substituted dioxetanes with base; settings: for base-induced chemiluminescence: base-induced decomposition, room temperature (2b: potassium t-butoxide in o-xylene, 25° C.)
Method: (§2) A solution of the dioxetane in a suitable solvent (e.g. o-xylene) was placed in the reaction vial as described above. The vial was placed in the sample holder which was maintained at a temperature such that thermal decomposition of the dioxetane was negligible. Instrument parameters were selected as above and data collection started. A solution of the releasing agent (e.g. base or fluoride) preferably in the reaction solvent was injected by syringe into the rapidly stirred dioxetane solution. The volume of releasing agent added was generally less than 5% of the total volume so that temperature fluctuation of the sample during the time course of the decay was minimal. The pseudo-first order decay was monitored for at least three half-lives.
1. Triggering the Chemiluminescence of Hydroxy-Substituted Dioxetanes with Base: Potassium tert-butoxide induced decomposition of 2b. […].

[3] = Triggering properties of further prepared dioxetanes (general statement)
[4] = Thermal decomposition of dioxetanes monitored by decay of chemiluminescence (activation parameters in xylene); type: physicochemical
Method: Rates of dioxetane decomposition were monitored by the decay of chemiluminescence of aerated solutions. A cylindrical Pyrex vial equipped with magnet stir bar was filled with 3-4 mL of the reaction solvent, sealed with a Teflon-lined screw cap and placed in the thermostatted sample block of the chemiluminescence-measuring apparatus (Black Box). Temperature control was provided by an external circulating water bath. Appropriate values for the instrument gain and optical slit size were selected. […]. The vial was sealed with a Teflon-lined screw cap to prevent evaporation when high temperatures were used. Measurement of the signal was begun by opening the shutter. The chemiluminescent decay was generally recorded for at least three half-lives. Calculation of the first-order rate constant, k, from the In(Intensity) vs. time data was performed by a computer program utilizing a standard least-squares treatment. The correlation coefficient, r, was typically at least 0.999 and varied less than 5% between replicate samples. The observed rate was not measurably concentration dependent.
Activation parameters for decomposition of the dioxetanes were calculated from plots of In k vs. 1/T (Arrhenius eq.) or In k/t vs. 1/T (Eyring eq.) by a standard least-squares linear regression analysis.
Activation Energies for Decomposition of Dioxetanes 2 in Xylene.

[5] = for fluoride induced chemiluminescence in polar aprotic solvents: polar aprotic solvents such as acetonitrile
Method: as §2
2. Triggering the Chemiluminescence of Silyloxy-Substituted Dioxetanes with Fluorde Ion: Fluoride ion induced decomposition of 2c. […]. […]. A spectrum of the chemiluminescence obtained from the fluoride triggering of 2c in 1:1 aqueous/2-methoxyethanol is shown in FIG. 1 with the solid line. The fluorescence of the cleavage product (methyl 6-hydroxy-2-naphthoate) from the dioxetane is also shown with the dashed line for comparison.

[6] = 25° C.; cited from earlier work
[7] = tested on: alkaline phosphatase from Bovine Intestinal Mucosa; test: Enzymatic triggering of chemiluminescence with alkaline phosphatase (Type VII-S); type: biochemical; settings: 2-amino-2-methyl-1-propanol buffer pH 10.3, 1.5M, 37° C., 10 μL enzyme suspension
Method: A cuvette containing 3 mL of a buffer solution of 2-amino-2-methyl-l-propanol (Sigma Chemical Co., pH=10.3, 1.5M) was placed in the black box at 37° C. A portion (200 μL) of the dioxetane stock solution (6d in CH2 Cl2) was added to this buffer solution. Subsequent addition of 10 μL of an alkaline phosphatase suspension [Sigma, Type VII-S from Bovine Intestinal Mucosa, suspension in 3.2M (NH4)2 SO4 ] gave rise to chemiluminescence over a period of approximately 2-3 min indicating the enzymatic triggering of the dioxetane.

[8] = molecular target: T1, Acetylcholinesterase from human erythrocytes (Homo sapiens, UniProt P22303); test: Enzymatic triggering of chemiluminescence with acetylcholinesterase; type: biochemical; settings: 0.05M phosphate buffer, pH 8.0, 37.0° C.
T1 construct: purchased Sigma Chemical Co. C-3389; host or cells: human erythrocytes
Source text: Acetylcholinesterase, an enzyme of considerable biological significance, hydrolyzes acetylcholine to choline and acetic acid under physiological conditions. It was of interest to determine whether this enzyme would also initiate the chemiluminescent decomposition of the acetyl-protected dioxetane 2e by removal of the acetyl group. Acetylcholinesterase (C-3389) from human erythrocytes was purchased from Sigma Chemical Co. as a lyophilized powder containing phosphate buffer salts. […]. Addition of more dioxetane during this period generated more light.

[9] = type: physicochemical; settings: 0.002M in 2-methoxyethanol, stored at 0° C.
Method: as §1
Stability of Enzyme and Dioxetane to Reaction Conditions. Many dioxetanes are known to be destroyed via a non-luminescent pathway by acid catalyzed processes in protic solvents. Similarly, amines are also known to cause the catalytic destruction of dioxetanes via an electron-transfer process. […]

[10] = 1 μL (0.26 units) aryl esterase, pH 7.6 Tris buffer, 25° C.

T1 sequence (P22303 other isoform, or with tags, fused parts or gaps): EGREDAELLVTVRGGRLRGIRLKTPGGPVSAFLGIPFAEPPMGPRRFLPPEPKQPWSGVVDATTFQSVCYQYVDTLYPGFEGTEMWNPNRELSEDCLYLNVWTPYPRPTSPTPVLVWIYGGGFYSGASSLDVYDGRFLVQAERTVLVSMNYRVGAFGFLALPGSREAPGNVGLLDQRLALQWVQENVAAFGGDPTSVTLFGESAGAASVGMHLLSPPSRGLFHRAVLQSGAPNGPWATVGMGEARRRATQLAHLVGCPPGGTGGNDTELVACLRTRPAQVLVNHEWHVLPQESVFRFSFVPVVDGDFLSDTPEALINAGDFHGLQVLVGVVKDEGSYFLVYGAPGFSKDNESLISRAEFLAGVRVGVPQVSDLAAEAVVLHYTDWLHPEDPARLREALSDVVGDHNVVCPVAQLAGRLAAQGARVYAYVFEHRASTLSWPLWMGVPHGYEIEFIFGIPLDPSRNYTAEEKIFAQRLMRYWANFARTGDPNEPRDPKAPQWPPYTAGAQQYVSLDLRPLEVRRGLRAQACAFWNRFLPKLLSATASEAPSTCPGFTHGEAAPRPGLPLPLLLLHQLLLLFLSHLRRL

CC(=O)Oc1ccc2ccccc2c1 [β-naphthyl acetate, reference compound]
effect of added competing esterase substrate on light intensity [1]: rapid decrease in light intensity

Oc1ccc2c(c1)C1(OOC13C1CC4CC(C1)CC3C4)c1ccccc1-2 (stereo not shown) [Dioxetane 4a]
base-induced chemiluminescence [2]: produced chemiluminescence at room temperature | triggering properties [3]: triggering properties similar to dioxetanes 2a-c and 2e

COC1(c2ccc3cc(O[Si](C)(C)C(C)(C)C)ccc3c2)OOC12C1CC3CC(C1)CC2C3 (stereo not shown) [Dioxetane 2c]
Ea (activation energy for decomposition) ([4]; decomposition in xylene): 27.0 | half-life of chemiluminescence decay, fluoride ion induced ([5]; 10^-4 M dioxetane, 0.01M tetrabutylammonium fluoride in 2-methoxyethanol, room temperature, pseudo-first order, 100 µM): about 20 minutes | fluoride induced chemiluminescence ([5]; tetrabutylammonium fluoride in 2-methoxyethanol): Blue chemiluminescence was produced

COC1(c2cccc(O[Si](C)(C)C(C)(C)C)c2)OOC12C1CC3CC(C1)CC2C3 (stereo not shown) [Dioxetane 8b, 4-(3-tert-Butyldimethylsilyloxyphenyl)-4-methoxyspiro[1,2-dioxetane-3,2'-adamantane]]
fluoride induced chemiluminescence in polar aprotic solvents [5]: bright chemiluminescence

CC(=O)Oc1ccc2c(c1)Oc1ccccc1C21OOC12C1CC3CC(C1)CC2C3 (stereo not shown) [Dioxetane 6c]
triggering properties [3]: triggering properties similar to dioxetanes 2a-c and 2e

Oc1ccc2c(c1)Oc1ccccc1C21OOC12C1CC3CC(C1)CC2C3 (stereo not shown) [Dioxetane 6a]
base-induced chemiluminescence [2]: produced chemiluminescence at room temperature | triggering properties [3]: triggering properties similar to dioxetanes 2a-c and 2e

CC(C)(C)[Si](C)(C)Oc1ccc2c(c1)C1(OOC13C1CC4CC(C1)CC3C4)c1ccccc1-2 (stereo not shown) [Dioxetane 4b, Dispiro[adamantane-2,3'-[1,2]dioxetane-4',9"-(2-tert-butyldimethylsilyloxy-9-fluorene)]]
fluoride induced chemiluminescence in polar aprotic solvents [5]: bright chemiluminescence

COC1(c2ccc3cc(O[Si](c4ccccc4)(c4ccccc4)C(C)(C)C)ccc3c2)OOC12C1CC3CC(C1)CC2C3 (stereo not shown) [Dioxetane 2d]
triggering properties [3]: triggering properties similar to dioxetanes 2a-c and 2e | fluoride induced chemiluminescence in polar aprotic solvents [5]: bright chemiluminescence

COC1(c2ccc3cc(O)ccc3c2)OOC12C1CC3CC(C1)CC2C3 (stereo not shown) [Dioxetane 2b, 4-(6-Hydroxy-2-naphthyl)-4-methoxyspiro[1,2-dioxetane-3,2'-adamantane]]
base-induced chemiluminescence [2]: intense blue chemiluminescence | base-induced chemiluminescence with other bases ([2]; methanol with KOH as base, or o-xylene with n-BuLi as base): bright blue chemiluminescence with similar decay rates

Oc1ccc(C23OCCOC2(c2ccccc2)OO3)cc1 (stereo not shown) [deprotonated dioxetane (X=O^-)]
decomposition rate relative to protonated form (X=OH) [6]: 5.7×10^6 times faster

CC(=O)Oc1cccc2ccccc12 [α-naphthyl acetate, reference compound]
effect of added competing esterase substrate on light intensity [1]: rapid decrease in light intensity

O=P(O)(O)Oc1ccc2c(c1)Oc1ccccc1C21OOC12C1CC3CC(C1)CC2C3 (stereo not shown) [Dioxetane 6d, Dispiro[adamantane-2,3'-[1,2]dioxetane-4',9"-(3-phosphate-9H-xanthene]]
period of chemiluminescence after enzyme addition [7]: 2 to 3 min

COC1(c2ccc3cc(OC(C)=O)ccc3c2)OOC12C1CC3CC(C1)CC2C3 (stereo not shown) [Dioxetane 2e, 4-(6-Acetoxy-2-naphthyl)-4-methoxyspiro[1,2-dioxetane-3,2'-adamantane]]
period over which chemiluminescence decayed [1, 10]: 30 min | time at which chemiluminescence intensity reached a maximum [1, 10]: about 3 minutes | maximum light intensity IMAX versus temperature ([1]; 1 μL enzyme in Tris buffer at 25, 37 and 50° C.): increased with increasing temperature | chemiluminescence with enzyme medium only ([1]; 3 mL Tris buffer containing 5 μL of 3 M (NH4)2SO4, no enzyme, 25° C.): produced no chemiluminescence | chemiluminescence signal without enzyme ([1]; 150 μL (0.3 μmol) dioxetane stock in 3.0 mL pH 7.6 Tris buffer, 25° C., before enzyme): no chemiluminescence signal was detected | chemiluminescence with denatured enzyme ([1]; enzyme heated to 90° C. in Tris buffer and cooled to 25° C.): resulted in no chemiluminescence | duration of light emission [8]: 20 s | duration of thermal chemiluminescence ([4]; aliquot injected into 3 mL of o-xylene at 95° C.): persisted for several hours | stability of stock solution on storage [9]: stable indefinitely

CCCCCCCCCCCCOS(=O)(=O)[O-].[Na+] [sodium lauryl sulfate (SDS), sodium lauryl sulfate, reference compound]
effect of enzyme inhibitor on light emission ([1]; added at maximum emission of 2e, Tris buffer, 1.5 μL enzyme): irreversible decrease in the intensity

COC1(c2cccc(O)c2)OOC12C1CC3CC(C1)CC2C3 (stereo not shown) [Dioxetane 8a]
base-induced chemiluminescence [2]: produced chemiluminescence at room temperature

CC(C)(C)[Si](C)(C)Oc1ccc2c(c1)Oc1ccccc1C21OOC12C1CC3CC(C1)CC2C3 (stereo not shown) [Dioxetane 6b]
triggering properties [3]: triggering properties similar to dioxetanes 2a-c and 2e | fluoride induced chemiluminescence in polar aprotic solvents [5]: bright chemiluminescence
